Each structure is given as a SMILES string.

Experimental findings from patent US8178522B2, “Thiazoles” (Hoffmann-La Roche Inc., priority 2009, dated 2012) are described below.

One experiment deals with T1, GABA A α5 (α5β3γ2) (Homo sapiens, UniProt P18507+P31644).
T1 construct: expressed in transfected cells; host or cells: HEK293, transiently transfected; membrane preparation
The experiment can be described thus: [3H]flumazenil competition binding, human GABA A α5 receptor.
Details: not given
Here is the method: Membrane Preparation and Binding Assay
The affinity of compounds at GABA A receptor subtypes was measured by competition for [3H]flumazenil (85 Ci/mmol; Roche) binding to HEK293 cells expressing rat (stably transfected) or human (transiently transfected) receptors of compositional α1β3γ2, α2β3γ2, α3β3γ2 and α5β3γ2.
Cell pellets were suspended in Krebs-tris buffer (4.8 mM KCl, 1.2 mM CaCl2, 1.2 mM MgCl2, 120 mM NaCl, 15 mM Tris; pH 7.5; binding assay buffer), homogenized by polytron for ca. 20 sec on ice and centrifuged for 60 min at 4° C. (50000 g; Sorvall, rotor: SM24=20000 rpm). The cell pellets were re-suspended in Krebs-tris buffer and homogenized by polytron for ca. 15 sec on ice. Protein was measured (Bradford method, Bio-Rad) and aliquots of 1 mL were prepared and stored at −80° C.
Assays were incubated to equilibrium for 1 hour at 4° C. and harvested onto GF/C uni-filters (Packard) by filtration using a Packard harvester and washing with ice-cold wash buffer (50 mM Tris; pH 7.5). After drying, filter-retained radioactivity was detected by liquid scintillation counting. Ki values were calculated using Excel-Fit (Microsoft) and are the means of two determinations.
With `Cc1onc(-c2ccc(F)cn2)c1CCc1ncc(C(=O)NC2CC2)s1` [Example 42, 2-{2-[3-(5-Fluoro-pyridin-2-yl)-5-methyl-isoxazol-4-yl]-ethyl}-thiazole-5-carboxylic acid cyclopropylamide], the Ki was 12.7 nM.

Staying with this experiment, now noted: human receptor α5β3γ2 transiently transfected in HEK293 cells; competition for [3H]flumazenil 0.5 nM; 1 hour at 4° C.; means of two determinations; read-out: hKi GABA A α5.
Take `Cc1nc(CCc2conc2-c2ccccn2)sc1C(=O)NCC(F)(F)F` [Example 20, 4-Methyl-2-[2-(3-pyridin-2-yl-isoxazol-4-yl)-ethyl]-thiazole-5-carboxylic acid (2,2,2-trifluoro-ethyl)-amide]: the Ki is 90.5 nM.
As to `COC(=O)c1cnc(CCc2c(-c3ccccn3)noc2C)s1` [Example 21, 2-[2-(5-Methyl-3-pyridin-2-yl-isoxazol-4-yl)-ethyl]-thiazole-5-carboxylic acid methyl ester], the Ki was 40.2 nM.
Same read-out and setting: in the case of `Cc1onc(-c2ccccn2)c1CCc1ncc(C(=O)NC(C)C)s1` [Example 22, 2-[2-(5-Methyl-3-pyridin-2-yl-isoxazol-4-yl)-ethyl]-thiazole-5-carboxylic acid isopropylamide] it was 18.1 nM; in that of `Cc1onc(-c2ccccn2)c1CCc1ncc(C(=O)NC2CC2)s1` [Example 23, 2-[2-(5-Methyl-3-pyridin-2-yl-isoxazol-4-yl)-ethyl]-thiazole-5-carboxylic acid cyclo-propylamide], 26.1 nM; in that of `Cc1onc(-c2ccccn2)c1CCc1ncc(C(=O)NC2CCOCC2)s1` [Example 24, 2-[2-(5-Methyl-3-pyridin-2-yl-isoxazol-4-yl)-ethyl]-thiazole-5-carboxylic acid (tetra-hydro-pyran-4-yl)-amide], 18.8 nM.
As for `Cc1onc(-c2ccccn2)c1CCc1ncc(C(N)=O)s1` [Example 25, 2-[2-(5-Methyl-3-pyridin-2-yl-isoxazol-4-yl)-ethyl]-thiazole-5-carboxylic acid amide], the Ki was found to be 33.6 nM.
As to `Cc1onc(-c2ccccn2)c1CCc1ncc(C(=O)NCC2CC2)s1` [Example 26, 2-[2-(5-Methyl-3-pyridin-2-yl-isoxazol-4-yl)-ethyl]-thiazole-5-carboxylic acid cyclo-propylmethyl-amide], the Ki was 34.7 nM.
Take `Cc1onc(-c2ccccn2)c1CCc1ncc(C(=O)NC2CCS(=O)(=O)C2)s1` (centres unmarked) [Example 27, 2-[2-(5-Methyl-3-pyridin-2-yl-isoxazol-4-yl)-ethyl]-thiazole-5-carboxylic acid (1,1-dioxo-tetrahydrothiophen-3-yl)-amide]: the Ki stood at 14 nM.
On the same count and under the same terms, in the case of `Cc1onc(-c2ccccn2)c1CCc1ncc(C(=O)NCC(F)(F)F)s1` [Example 28, 2-[2-(5-Methyl-3-pyridin-2-yl-isoxazol-4-yl)-ethyl]-thiazole-5-carboxylic acid (2,2,2-trifluoro-ethyl)-amide] it was 17.8 nM; in that of `Cc1onc(-c2ccccn2)c1CCc1ncc(C(=O)NCCO)s1` [Example 29, 2-[2-(5-Methyl-3-pyridin-2-yl-isoxazol-4-yl)-ethyl]-thiazole-5-carboxylic acid (2-hydroxy-ethyl)-amide], 32.4 nM; in that of `COC(=O)c1sc(CCc2c(-c3ccc(F)cn3)noc2C)nc1C` [Example 30, 2-{2-[3-(5-Fluoro-pyridin-2-yl)-5-methyl-isoxazol-4-yl]-ethyl}-4-methyl-thiazole-5-carboxylic acid methyl ester], 23.6 nM.
Same read-out and setting: in the case of `Cc1nc(CCc2c(-c3ccc(F)cn3)noc2C)sc1C(=O)NC1CCOCC1` [Example 31, 2-{2-[3-(5-Fluoro-pyridin-2-yl)-5-methyl-isoxazol-4-yl]ethyl}-4-methyl-thiazole-5-carboxylic acid (tetrahydro-pyran-4-yl)-amide] it was 5.2 nM; in that of `Cc1nc(CCc2c(-c3ccc(F)cn3)noc2C)sc1C(=O)NC(C)C` [Example 32, 2-{2-[3-(5-Fluoro-pyridin-2-yl)-5-methyl-isoxazol-4-yl]-ethyl}-4-methyl-thiazole-5-carboxylic acid isopropylamide], 7 nM.
For the compound `Cc1nc(CCc2c(-c3ccc(F)cn3)noc2C)sc1C(=O)NC1CC1` [Example 33, 2-{2-[3-(5-Fluoro-pyridin-2-yl)-5-methyl-isoxazol-4-yl]-ethyl}-4-methyl-thiazole-5-carboxylic acid cyclopropylamide], the Ki came to 9 nM.
On the same count and under the same terms, as for `Cc1nc(CCc2c(-c3ccc(F)cn3)noc2C)sc1C(=O)NCC1CC1` [Example 34, 2-{2-[3-(5-Fluoro-pyridin-2-yl)-5-methyl-isoxazol-4-yl]-ethyl}-4-methyl-thiazole-5-carboxylic acid cyclopropylmethyl-amide], the figure is 16 nM; as for `Cc1nc(CCc2c(-c3ccc(F)cn3)noc2C)sc1C(=O)NCC(F)(F)F` [Example 35, 2-{2-[3-(5-Fluoro-pyridin-2-yl)-5-methyl-isoxazol-4-yl]ethyl}-4-methyl-thiazole-5-carboxylic acid (2,2,2-trifluoro-ethyl)-amide], 6.6 nM.
Take `Cc1nc(CCc2c(-c3ccc(F)cn3)noc2C)sc1C(=O)NCCO` [Example 36, 2-{2-[3-(5-Fluoro-pyridin-2-yl)-5-methyl-isoxazol-4-yl]-ethyl}-4-methyl-thiazole-5-carboxylic acid (2-hydroxy-ethyl)-amide]: the Ki is 14 nM.
Same read-out and setting: as for `Cc1nc(CCc2c(-c3ccc(F)cn3)noc2C)sc1C(=O)N1CCSCC1` [Example 37, (2-{2-[3-(5-Fluoro-pyridin-2-yl)-5-methyl-isoxazol-4-yl]-ethyl}-4-methyl-thiazol-5-yl)-thiomorpholin-4-yl-methanone], the figure is 55.9 nM.
The same measure, in the same setting: as for `CCNC(=O)c1sc(CCc2c(-c3ccc(F)cn3)noc2C)nc1C` [Example 38, 2-{2-[3-(5-Fluoro-pyridin-2-yl)-5-methyl-isoxazol-4-yl]-ethyl}-4-methyl-thiazole-5-carboxylic acid ethylamide], the figure is 10.8 nM.
On the same count and under the same terms, in the case of `CNC(=O)c1sc(CCc2c(-c3ccc(F)cn3)noc2C)nc1C` [Example 39, 2-{2-[3-(5-Fluoro-pyridin-2-yl)-5-methyl-isoxazol-4-yl]-ethyl}-4-methyl-thiazole-5-carboxylic acid methylamide] it was 25.3 nM.
With `Cc1onc(-c2ccc(F)cn2)c1CCc1ncc(C(=O)NC2CCOCC2)s1` [Example 40, 2-{2-[3-(5-Fluoro-pyridin-2-yl)-5-methyl-isoxazol-4-yl]-ethyl}-thiazole-5-carboxylic acid (tetrahydro-pyran-4-yl)-amide], the Ki came to 13.3 nM.
`Cc1onc(-c2ccc(F)cn2)c1CCc1ncc(C(=O)NC(C)C)s1` [Example 41, 2-{2-[3-(5-Fluoro-pyridin-2-yl)-5-methyl-isoxazol-4-yl]-ethyl}-thiazole-5-carboxylic acid isopropylamide]: the Ki turned out to be 10.8 nM.
Same read-out and setting: as for `Cc1onc(-c2ccc(F)cn2)c1CCc1ncc(C(=O)NCC2CC2)s1` [Example 43, 2-{2-[3-(5-Fluoro-pyridin-2-yl)-5-methyl-isoxazol-4-yl]-ethyl}-thiazole-5-carboxylic acid cyclopropylmethyl-amide], the figure is 18.6 nM; as for `Cc1onc(-c2ccc(F)cn2)c1CCc1ncc(C(=O)NCC(F)(F)F)s1` [Example 44, 2-{2-[3-(5-Fluoro-pyridin-2-yl)-5-methyl-isoxazol-4-yl]-ethyl}-thiazole-5-carboxylic acid (2,2,2-trifluoro-ethyl)-amide], 15.7 nM.
The same measure, in the same setting: in the case of `Cc1onc(-c2ccc(F)cn2)c1CCc1ncc(C(=O)NCCO)s1` [Example 45, 2-{2-[3-(5-Fluoro-pyridin-2-yl)-5-methyl-isoxazol-4-yl]-ethyl}-thiazole-5-carboxylic acid (2-hydroxy-ethyl)-amide] it was 26.3 nM; in that of `CCNC(=O)c1cnc(CCc2c(-c3ccc(F)cn3)noc2C)s1` [Example 46, 2-{2-[3-(5-Fluoro-pyridin-2-yl)-5-methyl-isoxazol-4-yl]-ethyl}-thiazole-5-carboxylic acid ethylamide], 18.1 nM.
Same read-out and setting: as for `CNC(=O)c1cnc(CCc2c(-c3ccc(F)cn3)noc2C)s1` [Example 47, 2-{2-[3-(5-Fluoro-pyridin-2-yl)-5-methyl-isoxazol-4-yl]-ethyl}-thiazole-5-carboxylic acid methylamide], the figure is 26.3 nM; as for `CCCCc1noc(C)c1CCc1nc(C)c(C(=O)NC(C)C)s1` [Example 48, 2-[2-(3-Butyl-5-methyl-isoxazol-4-yl)-ethyl]-4-methyl-thiazole-5-carboxylic acid iso-propylamide], 23.1 nM; as for `CCCCc1noc(C)c1CCc1nc(C)c(C(=O)NCC(C)(C)O)s1` [Example 49, 2-[2-(3-Butyl-5-methyl-isoxazol-4-yl)-ethyl]-4-methyl-thiazole-5-carboxylic acid (2-hydroxy-2-methyl-propyl)-amide], 43.3 nM.
Consider `CCCCc1noc(C)c1CCc1nc(C)c(C(=O)NC(C)CO)s1` (centres unmarked) [Example 50, 2-[2-(3-Butyl-5-methyl-isoxazol-4-yl)-ethyl]-4-methyl-thiazole-5-carboxylic acid (2-hydroxy-1-methyl-ethyl)-amide], for which the Ki came to 16.8 nM.
The same measure, in the same setting: in the case of `CCCCc1noc(C)c1CCc1nc(C)c(C(=O)NC2CCOCC2)s1` [Example 51, 2-[2-(3-Butyl-5-methyl-isoxazol-4-yl)-ethyl]-4-methyl-thiazole-5-carboxylic acid (tetra-hydro-pyran-4-yl)-amide] it was 11.1 nM.
